Patent publication US5830910A (priority 1995, dated 1998)
“Also recorded” adds a separate entry of the source.

Assays:
Assay type in all cases: cell-based, rat
[1] = test system: cultured hippocampal neurons; test: cells
Description: (§1) Dissociated embryonic rat hippocampal cell cultures were established and maintained. All procedures conformed with the NIH Guide for the Care and Use of Laboratory Animals and were approved by the University of Kentucky Animal Care and Use Committee. Cultures were maintained on a polyethyleneimine-coated substrate in plastic 35-mm dishes or 96 wall plates (for cell survival studies) or glass-bottom 35-mm dishes (for [Ca^2+ ]i imaging studies). The cell density was ^~ 70-100 cells/mm^2. Cells were maintained in Eagle's minimum essential medium supplemented 10% with fetal bovine serum and containing 20 mM sodium pyruvate. […] Aβ25-35 (Bachem, lot ZJ744) and Aβ1-40 (Bachem, lot ZK600) were stored in the lyophilized form, and stocks were prepared immediately before use by dissolving the peptide at a concentration of 1 mM in sterile distilled water. […] Glutamate and colchicine (Sigma) were prepared as 200-500x stocks in saline. Cytochalasins D and E (Sigma) and calcium ionophore 4-bromo-A23187 (Calbiochem) were prepared as 500x stocks in dimethyl sulfoxide. Vitamin E (α-tocopherol; Sigma) was prepared as a 500x stock in ethanol. Nordihydroguaiaretic acid and FeSo4 were prepared as 500x stocks in sterile water.
Neuronal survival was quantified by counting viable neurons in the same microscope fields (10x objective) immediately before experimental treatment and at time points after treatment. In addition, cells were grown in 96-well plates and Alamar blue fluorescence (Alamar Laboratories)was quantified by using a fluorescence plate reader. Alamar Blue is a non-fluorescent substrate that, after reduction by cell metabolites, becomes fluorescent. Usually neurons that died in the time intervals (20-48 h) between examination points were absent. Viability of the remaining neurons was assessed by morphological criteria. Neutrons with intact neurites of uniform diameter and a soma with a smooth, round appearance were considered viable, whereas neurons with fragmented neurites and a vacuolated or swollen soma were considered nonviable. Survival values were expressed as percentages of the initial number of neurons present before experimental treatment. Statistical comparisons were made using ANOVA and Scheffe post-hoc tests for pairwise comparisons.
FIG. 5. […] Cytochalasin D was added to cultures 30 min prior to exposure to glutamate, and control cultures were exposed to 0.2% dimethylsulfoxide.
(A) Neuronal survival was quantified in cultures that had been pretreated with the indicated concentrations of cytochalasin D and then exposed to 50 μM glutamate for 20 h. Values represent the means and SEM of determinations made in four separate cultures. […] Pairwise statistical comparisons of cytochalasin-treated cultures with the control survival (Scheffe's test) indicated 1 nM cytochalasin D, P<0.05; 10 nM cytochalasin D, P<0.001; 100 and 1000 nM cytochalasin D, P<0.0001.
(B) Neuronal survival was quantified in cultures that had been pretreated with either vehicle (control) or 100 nM cytochalasin D and then exposed to the indicated concentrations of glutamate for 20 h. Values represent the means and SEM of determinations made in four separate cultures. […] ANOVA with Scheffe's post hoc test.
FIG. 6. (A) Cultures were pretreated with 100 nM cytochalasin D (CyD), 100 nM cytochalasin E (CyE), or 100 nM colchicine (Colch). Cultures were then exposed to 50 μM glutamate for 20 h. Values for neuronal survival represent the means and SEM of determinations made in four separate cultures. *P<0.001 compared to control value. **P<0.001 compared to value for cultures exposed to glutamate alone.
[…] Values represent the means and SEM of determinations made in four separate cultures. *P<0.01 compared to value for cultures exposed to 20 μM glutamate alone. **P<0.05 compared to cultures exposed to 50 μM glutamate alone.

[2] = test system: neuronal [Ca^2+]i in cultured hippocampal neurons; test: measurement of [Ca^2+]i, fura-2 imaging; settings: for reduction in peak [Ca^2+]i response to glutamate: 1 h
Description: as §1
Fluorescence ratio imaging of the Ca^2+ indicator dye fura-2 was used to quantify [Ca^2+ ]i in neuronal somata. Cells were incubated for 30-40 min in the presence of 2 μM acetoxymethyl ester form of the [Ca^2+ ]i indicator dye fura-2 and were then washed twice (2 ml/wash) with fresh medium and allowed to incubate at least 40 min before imaging. Immediately before imaging, the normal culture medium was replaced with Hanks' balanced saline solution (GIBCO) containing 10 mM HEPES buffer and 10 mM of glucose. Cells were imaged using a Zeiss Attofluor system with a oil objective or Quantex system with a 40x oil objective. The ratio of the fluorescence emission using two different excitation wavelengths (334 and 380 nm) was used to determine [Ca^2+ ]i. The system was calibrated using solutions containing either no Ca^2+ or a saturating level of Ca^2+ (1 mM) according to the following formula: [Ca^2+ ]i =KD [(R-Rmin) / (Rmax -R)] (F0 /FS). Values represent the average [Ca^2+ ]i in the neuronal cell body. Experimental treatments were added to the bathing medium by dilution from 100-500x stocks.
(A) Cultures were pretreated for 1 hr with 100 nM cytochalasin D and then [Ca^2+ ]i in neurons was monitored prior to and following exposure to 50 μM glutamate. The records represent the mean [Ca^2+ ]i in 8-12 neurons. Similar results were obtained in 4 separate experiments.
(B) Aβ-induced potentiation of [Ca^2+ ]i response to glutamate is abrogated by cytochalasin D. Cultures were left untreated (Control) or were exposed to 20 μM Aβ25-35 for 6 hr or cytochalasin D plus Aβ25-35 for 6 hr. The [Ca^2+ ]i was then monitored prior to following exposure to 50 μM glutamate. Values represent the means of 8-14 neurons. Similar results were obtained in 3 separate experiments.
(C) Cultures were pretreated for 3 hr with 50 μM Aβ alone or in combination with 100 nM cytochalasin D. The [Ca^2+ ]i in neurons was then monitored prior to and following exposure to 50 mM KCl. Values represent the mean of 14-23 neurons. Similar results were obtained in a separate experiment.
(D) Cultures were pretreated for 1 h with 100 nM cytochalasin D. The [Ca^2+ ]i in neurons was measured immediately prior to, and at 5 min following, exposure to the indicated concentrations of glutamate. Values represent the means and SEM of determinations made in 17-26 neurons. *P<0.05 (10 μM glutamate), P<0.02 (50 μM glutamate), P<0.01 (100 μAM glutamate) compared to corresponding control values.
FIG. 9. Cultures were pretreated for 3 h with vehicle (control) or 10 μM jasplakinolide. The [Ca^2+ ]i was monitored prior to and following exposure to 50 μM glutamate. Values represent the mean of determinations made in 10-12 neurons. Similar results were obtained in two additional experiments.
FIG. 10. […]

[3] = test system: cultured hippocampal neurons; test: cells; settings: pretreated 1 hr; 100 μM glutamate, 24 hr

SMILES: C=C1[C@@H](C)[C@H]2[C@H](Cc3ccccc3)NC(=O)[C@]23[C@H](OC(C)=O)/C=C/[C@@](C)(O)C(=O)[C@@H](C)C/C=C/[C@H]3[C@@H]1O [Cytochalasin D, cytochalasin D]
- neuronal survival upon exposure to glutamate ([1]; 100 nM pretreatment, 10 μM (P<0.05), 50 μM (P<0.001), 100 μM (P<0.02) glutamate, 20 h): significantly greater
- neurons killed upon exposure to glutamate ([1]; 100 nM pretreatment, 50 μM glutamate, 20 h): < 10%
- effect on neuronal survival, alone ([1]; 10-100 nM alone, 20-h exposure): no significant effect on neuronal survival
- effect on [Ca^2+]i response to calcium ionophore A23187 ([2]; 100 nM pretreatment, 500 nM A23187): did not attenuate; also recorded: does not affect
- effect on K^+-induced elevation of [Ca^2+]i ([2]; 100 nM pretreatment, 50 mM KCl): suppressed
- reduction in peak [Ca^2+]i response to glutamate ([2]; 100 nM, 10 μM glutamate, P<0.05): approximately 60 nM
- reduction in peak [Ca^2+]i response to glutamate ([2]; 100 nM, 50 μM glutamate, P<0.02): approximately 170 nM
- reduction in peak [Ca^2+]i response to glutamate ([2]; 100 nM, 100 μM glutamate, P<0.01): ~460 nM
- rest [Ca^2+]i after Aβ exposure ([2]; 100 nM, 1 h pretreatment, 50 μM Aβ for 3 and 6 h): not significantly elevated
- reduction of [Ca^2+]i response to glutamate ([2]; 100 nM, 1 hr pretreatment, 50 μM glutamate): approximately 30%
- effect on Aβ-induced potentiation of [Ca^2+]i response to glutamate ([2]; Aβ pretreatment, 50 μM glutamate): completely blocked; also recorded: suppressed; also recorded: abrogated
- [Ca^2+]i responses to glutamate, Aβ, and membrane depolarization ([2]; pretreated): attenuated
- effect on glutamate neurotoxicity [3]: significantly attenuated

SMILES: COc1cc2c(c(OC)c1OC)-c1ccc(OC)c(=O)cc1[C@@H](NC(C)=O)CC2 [Colchicine, colchicine, reference compound]
- protection against glutamate toxicity ([1]; 100 nM, 50 μM glutamate, 20 h): did not protect neurons against glutamate toxicity
- effect on [Ca^2+]i response to glutamate ([2]; 100 nM): did not attenuate
- rest [Ca^2+]i, alone ([2]; alone, data not shown): elevation of rest [Ca^2+ ]i
- effect on [Ca^2+]i response to Aβ ([2]; data not shown): did not attenuate
- effect on glutamate neurotoxicity [3]: ineffective
